Key:
Assay in all cases: competitive isoTOP-ABPP
Assay type in all cases: binding
[1] = target: T1, ARL6IP1 ADP-ribosylation factor-like protein 6-interacting (Homo sapiens, UniProt Q15041)
T1 construct: isoTOP-ABPP experiments performed in cell lysates (in vitro); endogenous in cells; host or cells: soluble proteome of human cancer cell lines (MDA-MB-231; Ramos and Jurkat also prepared)
How it was run: (§1)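 Lysate + fragment (50 μM activated ester / 100 μM guanidinylating agent) or DMSO → 0.1 mM STP-alkyne, 1 h, RT → CuAAC to TEV tags (compound light, DMSO heavy) → LC-MS. R = heavy/light MS1 area; liganded lysine if R≥4.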

FAM136A Protein FAM136A = target: T2, FAM136A Protein FAM136A (Homo sapiens, UniProt Q96C01); details: for isoTOP-ABPP ratio (R) at liganded lysine Q96C01_K99 / isoTOP-ABPP reactivity ratio at lysine Q96C01_K99: 50 uM, in vitro; for isoTOP-ABPP ratio (R) at liganded lysine Q96C01_K99: sol, 231; for isoTOP-ABPP reactivity ratio at lysine Q96C01_K99: 231 sol
T2 construct: isoTOP-ABPP experiments performed in cell lysates (in vitro); endogenous in cells; host or cells: soluble proteome of human cancer cell lines (MDA-MB-231; Ramos and Jurkat also prepared)
How it was run: as §1

[2] = target: T3, IFIT3 Interferon-induced protein with tetratricopeptide (Homo sapiens, UniProt O14879); details: 50 uM, in vitro
T3 construct: isoTOP-ABPP experiments performed in cell lysates (in vitro); endogenous in cells; host or cells: MDA-MB-231 soluble lysate
T3 sequence (O14879 1-490): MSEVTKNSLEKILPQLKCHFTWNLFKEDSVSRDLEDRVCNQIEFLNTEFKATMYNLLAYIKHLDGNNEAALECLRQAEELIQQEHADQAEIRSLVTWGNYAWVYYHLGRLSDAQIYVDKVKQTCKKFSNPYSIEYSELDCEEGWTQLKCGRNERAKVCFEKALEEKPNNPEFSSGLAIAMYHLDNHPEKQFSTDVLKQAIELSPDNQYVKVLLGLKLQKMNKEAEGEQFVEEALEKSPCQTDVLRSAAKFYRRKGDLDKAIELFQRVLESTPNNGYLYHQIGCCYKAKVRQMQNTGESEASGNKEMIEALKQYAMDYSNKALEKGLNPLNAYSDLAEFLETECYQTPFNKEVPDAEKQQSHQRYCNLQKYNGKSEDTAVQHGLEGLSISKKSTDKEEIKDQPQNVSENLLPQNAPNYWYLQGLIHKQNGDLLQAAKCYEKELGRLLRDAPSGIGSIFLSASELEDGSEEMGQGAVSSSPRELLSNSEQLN
How it was run: as §1

[3] = target: T4, LDHB L-lactate dehydrogenase B chain (Homo sapiens, UniProt P07195); details: for isoTOP-ABPP ratio (R) at liganded lysine P07195_K82 / isoTOP-ABPP ratio (R) at liganded lysine P07195_K244: sol, 231
T4 construct: isoTOP-ABPP experiments performed in cell lysates (in vitro); endogenous in cells; host or cells: MDA-MB-231 soluble lysate
How it was run: as §1

[4] = target: T5, MRPL12 39S ribosomal protein L12, mitochondrial (Homo sapiens, UniProt P52815); details: for isoTOP-ABPP ratio, lysine P52815_K87: 50 uM_231_sol_in vitro, possible other lysine B4DLN1_K87, P52815_K91
T5 construct: isoTOP-ABPP experiments performed in cell lysates (in vitro); endogenous in cells; host or cells: soluble proteome of human cancer cell lines (MDA-MB-231, Ramos, Jurkat)
How it was run: as §1

T4 sequence (P07195 whole entry): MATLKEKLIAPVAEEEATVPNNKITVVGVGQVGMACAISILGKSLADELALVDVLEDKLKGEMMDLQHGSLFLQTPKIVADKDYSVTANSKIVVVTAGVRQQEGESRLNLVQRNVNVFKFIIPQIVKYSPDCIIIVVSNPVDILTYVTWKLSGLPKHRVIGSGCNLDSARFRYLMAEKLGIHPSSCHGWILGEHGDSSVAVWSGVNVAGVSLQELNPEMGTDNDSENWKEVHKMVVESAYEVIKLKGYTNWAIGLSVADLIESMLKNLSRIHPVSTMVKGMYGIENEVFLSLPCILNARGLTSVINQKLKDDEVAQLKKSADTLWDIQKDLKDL
T1 sequence (Q15041 whole entry): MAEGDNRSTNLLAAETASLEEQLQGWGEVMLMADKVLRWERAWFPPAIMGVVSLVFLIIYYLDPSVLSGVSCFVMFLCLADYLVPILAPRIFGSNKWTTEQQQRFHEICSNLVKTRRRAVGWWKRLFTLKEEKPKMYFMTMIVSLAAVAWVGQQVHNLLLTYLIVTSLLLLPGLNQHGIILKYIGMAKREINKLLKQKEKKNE
T2 sequence (Q96C01 whole entry): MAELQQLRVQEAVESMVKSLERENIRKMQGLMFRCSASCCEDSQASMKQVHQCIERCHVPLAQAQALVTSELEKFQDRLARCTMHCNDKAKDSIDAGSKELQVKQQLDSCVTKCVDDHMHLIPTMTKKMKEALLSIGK

## O=C(CCc1coc2cc(F)ccc2c1=O)Oc1ccc([N+](=O)[O-])cc1[N+](=O)[O-] [fragment 36, 2,4-Dinitrophenyl 3-(7-fluoro-4-oxo-4H-chromen-3-yl)propanoate]
[1]; 50 uM, in vitro, sol, 231
  isoTOP-ABPP ratio (R) at liganded lysine Q15041_K188: 1.6
FAM136A Protein FAM136A
  isoTOP-ABPP ratio (R) at liganded lysine Q96C01_K99: 0.8
[2]; sol, 231
  isoTOP-ABPP ratio (R) at liganded lysine O14879_K148: 3.4
[3]; 50 uM, in vitro
  isoTOP-ABPP ratio (R) at liganded lysine P07195_K82: 0.9
  isoTOP-ABPP ratio (R) at liganded lysine P07195_K244: 20.0

## O=C(CCc1coc2cc(F)ccc2c1=O)Oc1c(F)c(F)c(F)c(F)c1F [fragment 26, Pentafluorophenyl 3-(7-fluoro-4-oxo-4H-chromen-3-yl)propanoate]
FAM136A Protein FAM136A
  isoTOP-ABPP reactivity ratio at lysine Q96C01_K99: 0.9
[2]; 231 sol
  isoTOP-ABPP reactivity ratio at lysine O14879_K148: 1.4
[3]; 50 uM, 231 sol, in vitro
  isoTOP-ABPP reactivity ratio at lysine P07195_K82: 0.7

## O=C(Oc1ccc([N+](=O)[O-])cc1[N+](=O)[O-])c1ccccc1Nc1cccc(C(F)(F)F)c1 [fragment 40, 2,4-Dinitrophenyl 2-((3-(trifluoromethyl)phenyl)amino)benzoate]
FAM136A Protein FAM136A
  isoTOP-ABPP ratio (R) at liganded lysine Q96C01_K99: 0.8
[3]; 50 uM, in vitro
  isoTOP-ABPP ratio (R) at liganded lysine P07195_K82: 20.0

## O=C(Oc1ccc([N+](=O)[O-])cc1[N+](=O)[O-])C1CCN(C(=O)OCc2ccccc2)CC1 [fragment 34, 1-Benzyl 4-(2,4-dinitrophenyl) piperidine-1,4-dicarboxylate]
FAM136A Protein FAM136A
  isoTOP-ABPP ratio (R) at liganded lysine Q96C01_K99: 1.2
[3]; 50 uM, in vitro
  isoTOP-ABPP ratio (R) at liganded lysine P07195_K244: 1.0

## Cn1cc(CC(=O)Oc2c(F)c(F)c(F)c(F)c2F)c2ccccc21 [fragment 22, Pentafluorophenyl 2-(1-methyl-1H-indol-3-yl)acetate]
[3]; P07195_K82, 50 uM, 231 sol, in vitro
  R value (DMSO/fragment) for probe 1 labeling: 0.8
[3]; P07195_K244, 50 uM, 231 sol, in vitro
  R value (DMSO/fragment) for probe 1 labeling: 1.0
[4]; P52815_K87, 50 uM, 231 sol, in vitro
  R value (DMSO/fragment) for probe 1 labeling: 1.4

## O=C(Oc1c(F)c(F)c(C(F)(F)F)c(F)c1F)c1cc(C(F)(F)F)cc(C(F)(F)F)c1 [fragment 47, 2,3,5,6-Tetrafluoro-4-(trifluoromethyl)phenyl 3,5-bis(trifluoromethyl)benzoate]
[1]; 50 uM_231_sol_in vitro
  isoTOP-ABPP ratio, lysine Q15041_K188: 3.5
FAM136A Protein FAM136A; 50 uM_231_sol_in vitro
  isoTOP-ABPP ratio, lysine Q96C01_K99: 0.7
[3]; 50 uM_231_sol_in vitro
  isoTOP-ABPP ratio, lysine P07195_K244: 1.0
[4]
  isoTOP-ABPP ratio, lysine P52815_K87: 1.1

## O=C(CC12CC3CC(CC(C3)C1)C2)Oc1ccc([N+](=O)[O-])cc1[N+](=O)[O-] [fragment 38, 2,4-Dinitrophenyl 2-(adamantan-1-yl)acetate]
[3]; 50 uM, in vitro
  isoTOP-ABPP ratio (R) at liganded lysine P07195_K82: 0.7
[4]; 50 uM, in vitro, sol, 231
  isoTOP-ABPP ratio (R) at liganded lysine P52815_K87: 0.9

## NC(=O)c1cc(C(F)(F)F)cc(C(F)(F)F)c1 [fragment 51, reference compound]
[4]
  isoTOP-ABPP ratio, lysine P52815_K87: 0.9

## O=C(CN1C(=O)c2ccccc2C1=O)Oc1c(F)c(F)c(F)c(F)c1F [fragment 27, Pentafluorophenyl 2-(1,3-dioxoisoindolin-2-yl)acetate]
[2]; 231 sol
  isoTOP-ABPP reactivity ratio at lysine O14879_K148: 0.9

## O=C(CCc1cn(-c2ccccc2)nc1-c1ccccc1)Oc1c(F)c(F)c(F)c(F)c1F [fragment 19, Pentafluorophenyl 3-(1,3-diphenyl-1H-pyrazol-4-yl)propanoate]
[2]; O14879_K148, 231 sol
  R value (DMSO/fragment) for probe 1 labeling: 0.9

## COc1cc(CCC(=O)Oc2ccc([N+](=O)[O-])cc2[N+](=O)[O-])cc(OC)c1OC [fragment 33, 2,4-Dinitrophenyl 3-(3,4,5-trimethoxyphenyl)propanoate]
[1]; 50 uM, 231 sol, in vitro
  isoTOP-ABPP reactivity ratio at lysine Q15041_K188: 1.3
FAM136A Protein FAM136A
  isoTOP-ABPP reactivity ratio at lysine Q96C01_K99: 0.7
[4]; 50 uM, 231 sol, in vitro
  isoTOP-ABPP reactivity ratio at lysine P52815_K87: 2.1

## O=C(Oc1ccc([N+](=O)[O-])cc1[N+](=O)[O-])C(c1ccccc1)c1ccccc1 [fragment 30, 2,4-Dinitrophenyl 2,2-diphenylacetate]
FAM136A Protein FAM136A
  isoTOP-ABPP reactivity ratio at lysine Q96C01_K99: 0.8
[3]; 50 uM, 231 sol, in vitro
  isoTOP-ABPP reactivity ratio at lysine P07195_K82: 20.0
  isoTOP-ABPP reactivity ratio at lysine P07195_K244: 1.2

## O=C(CCc1cn(-c2ccccc2)nc1-c1ccccc1)Oc1ccc([N+](=O)[O-])cc1[N+](=O)[O-] [fragment 29, 2,4-Dinitrophenyl 3-(1,3-diphenyl-1H-pyrazol-4-yl)propanoate]
FAM136A Protein FAM136A
  isoTOP-ABPP reactivity ratio at lysine Q96C01_K99: 0.8
[2]; 231 sol
  isoTOP-ABPP reactivity ratio at lysine O14879_K148: 4.1
[4]; 50 uM, 231 sol, in vitro
  isoTOP-ABPP reactivity ratio at lysine P52815_K87: 1.1
